Experimental data taken from publication PMC4961458 (eLife, 2016).

Experiments:
[1] = biological target: T1, PR-B (Homo sapiens, UniProt P06401); test: PR-B transcriptional reporter assay, antagonist mode (HEPG2 cells); format: cell-based; conditions: 1 nM R5020
T1 construct: cloning full-length human PRb into pCDNA; expressed in transfected cells; host or cells: HEPG2
T1 sequence (P06401 1-933): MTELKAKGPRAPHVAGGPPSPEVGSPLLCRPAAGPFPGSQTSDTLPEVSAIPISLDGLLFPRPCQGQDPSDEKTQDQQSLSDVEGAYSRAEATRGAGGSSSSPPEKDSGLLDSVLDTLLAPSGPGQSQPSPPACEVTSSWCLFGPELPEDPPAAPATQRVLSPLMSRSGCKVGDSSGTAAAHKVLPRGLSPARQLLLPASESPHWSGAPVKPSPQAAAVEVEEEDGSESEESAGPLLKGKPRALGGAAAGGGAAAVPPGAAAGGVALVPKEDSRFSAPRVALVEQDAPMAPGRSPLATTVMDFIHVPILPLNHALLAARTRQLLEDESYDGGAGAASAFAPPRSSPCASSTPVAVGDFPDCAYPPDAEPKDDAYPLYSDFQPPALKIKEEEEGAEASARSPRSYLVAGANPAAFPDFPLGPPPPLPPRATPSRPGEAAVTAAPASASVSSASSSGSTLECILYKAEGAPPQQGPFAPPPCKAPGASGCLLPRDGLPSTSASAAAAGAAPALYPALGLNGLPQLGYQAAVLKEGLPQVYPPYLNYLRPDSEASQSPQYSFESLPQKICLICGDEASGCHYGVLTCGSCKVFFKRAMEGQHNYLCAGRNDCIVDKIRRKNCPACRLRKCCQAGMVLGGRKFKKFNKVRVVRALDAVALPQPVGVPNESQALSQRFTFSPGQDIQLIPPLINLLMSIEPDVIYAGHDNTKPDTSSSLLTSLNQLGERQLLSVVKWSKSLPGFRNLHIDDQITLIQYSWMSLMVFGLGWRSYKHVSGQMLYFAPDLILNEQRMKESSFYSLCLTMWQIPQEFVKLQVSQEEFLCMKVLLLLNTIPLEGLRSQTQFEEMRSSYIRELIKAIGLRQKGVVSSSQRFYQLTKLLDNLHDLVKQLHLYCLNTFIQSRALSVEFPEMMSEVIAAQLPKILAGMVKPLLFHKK

[2] = test system: T47D ER.WT cells; test: Cell viability, T47D ER.WT cells; format: cell-based; conditions: Homo sapiens, +E2
Protocol: In the presence of 0.1 nM estrogen however, much of this competitive advantage is lost, with WT cells representing 40% ± 0.2% of the total population at day 15 (Figure 7C,D).
Figure 7. […] 4 images per condition were quantified.

Structure (SMILES): CC/C(=C(\c1ccc(O)cc1)c1ccc(OCCN(C)C)cc1)c1ccccc1 [4-OH Tam, 4-hydroxytamoxifen]
- IC50 [1]: 7.16 ± 2.15 µM

Structure (SMILES): CC/C(=C(/c1ccc(/C=C/C(=O)O)cc1)c1ccc2[nH]ncc2c1)c1ccc(F)cc1Cl [GDC-0810]
- IC50 [2]: 0.032 µM
